Measured values reported in paper PMC7179259, “Safety, Tolerability, Pharmacokinetics, and Antimalarial Activity of the Novel Plasmodium Phosphatidylinositol 4-Kinase Inhibitor MMV390048 in Healthy Volunteers” (Antimicrobial Agents and Chemotherapy, 2020).
Where two headings read alike, the source gives them in different places.

Tests used:
[1] = First-in-human single-ascending-dose study: plasma pharmacokinetics; assay type: in vivo; settings: for half-life / Tmax / AUC(0-inf) / Cmax / Vd/F: human, plasma; for Vd/F: read-out: Vz/F
Method: (i) First-in-human study. The study was conducted in five fasted cohorts (5, 20, 40, 80, and 120 mg) and one fed 40-mg cohort. The initial dose of 5 mg was chosen in agreement with guidelines on dose selection for first-in-human clinical studies ([15], [16]) and was based on the no-observed-adverse-event level for the most sensitive species observed in preclinical toxicology studies. Doses administered to subsequent cohorts were determined a priori after consideration of interim human pharmacokinetic and safety data.
All subjects in the fasted cohorts were dosed on day 1 after a fasting period of ≥8 h. Water was prohibited from 2 h predose and then allowed ad libitum from 2 h postdose, and standardized meals were provided from 4 h postdose. In the first two cohorts (5 and 20 mg), a sentinel subcohort (n = 2) was dosed on day 1. The safety review team reviewed safety and pharmacokinetic data of these subjects up to day 3 before dosing the rest of these two cohorts and up to day 19 for all cohorts before dose escalation. […] Selected subjects from the fasted cohorts then received 40 mg in a fed state to evaluate the effect of food on the tolerability and pharmacokinetic profile of MMV390048. […] The predose breakfast was in line with FDA guidelines ([13]) and was composed of approximately 800 to 1,000 calories (cal), with 150, 250, and 500 to 600 cal from protein, carbohydrate, and fat, respectively.
(§1) Blood samples from the three studies were analyzed at the University of Cape Town Division of Clinical Pharmacology Laboratory. MMV390048 was extracted from plasma using a protein precipitation procedure and analyzed using a liquid chromatography-tandem mass spectrometry assay. The precision (total assay coefficients of variation) for MMV390048 during sample analysis was less than 8% at all quality control levels, including the limit of quantification, which was 0.5 ng ml^−1. The full details of the assay are included in the supplemental material.
(§2) Noncompartmental pharmacokinetic analysis was performed using Phoenix WinNonlin Pro version 6.3 (Certara L.P., St. Louis, MO, USA) for the first-in-human and the formulation optimization studies, and using R version 3.2.0 for the IBSM study. Pharmacokinetic endpoints were the peak plasma concentration (Cmax), time at which Cmax is reached (Tmax), area under the concentration-time curve from 0 h to infinity (AUC0–inf), elimination half-life (t½), apparent clearance (CL/F), and apparent volume of distribution (Vz/F).

[2] = test system: rats; parameters: method as in not given; settings: preclinical toxicology studies in rats; ref not given; cited from earlier work
[3] = Induced blood-stage malaria (IBSM) study: plasma pharmacokinetics; assay type: in vivo; settings: human; for AUC(0-t): oral, 20 mg
Method: (ii) IBSM study. The dose of MMV390048 chosen (20 mg) was based on the pharmacokinetic, safety, and tolerability data available from the first-in-human study at the time the IBSM study commenced (when 5- and 20-mg-dose cohorts of the first-in-human study had been completed). This dose was below the estimated single dose required to achieve complete cure calculated from preclinical studies (80 to 100 mg) since recrudescence allows for characterization of the pharmacokinetic/pharmacodynamic relationship between MMV390048 and P. falciparum parasitemia. Subjects were inoculated intravenously on day 0 with erythrocytes infected with ∼1,800 viable chloroquine-sensitive P. falciparum 3D7 parasites ([17]). Fasted (≥8 h) subjects were dosed with MMV390048 when they reached the parasitemia threshold for treatment (∼1,000 parasites ml^−1) and were followed up until the end-of-study visit on day 28.
as §1, §2

[4] = parameters: method as in PMID 28446690; settings: predicted for humans; cited from earlier work
[5] = Stability of stock solutions in dimethylsulfoxide; assay type: physicochemical
Source text: page 28: Determination of MMV390048 from 50 µ L human plasma by LC -MS/MS A method was validated for the quantification of MMV390048 in human plasma, and consisted of a protein precipitation extraction, followed by high performance liquid chromatography with MS/MS detection. MMV390048- d3 was used as the internal standard. Analyte mean extraction yield was approximately 106.5 % (CV% = 6.2). The extraction procedure was followed by liquid chromatographic separation using a Waters Atlantis T3 3 μm, 100 x 2.1 mm analytical column. An isocratic mobile phase containing water:acetonitrile (25:75 [v/v]) was used at a flow-rate of 300 μL/min. The retention times for MMV390048 and MMV390048- d3 were 1.16 min and 1.16 min, respectively. An AB Sciex API 4000 mass spectrometer at unit resolution in the multiple reaction monitoring mode was used to monitor the transition of the protonated precursor ions, 394.145 m/z and 397.148 m/z, to the product ions, 297.0 m/z and 297.0 m/z, for MMV390048 and the internal standard, respectively. Electro -spray ionisation was used for ion production. Accuracy and precision were assessed over three consecutive, independent runs. The calibration curve fits a quadratic (weighted by 1/x) regressions for MMV390048 over the ranges 0.500 –2000 ng/mL, based on peak area ratios. The assay was successfully cross- validated on a second/back- up API 4000 instrument. […]

[6] = po, 5 mg, single oral 5 mg fasted, powder-in-bottle, n = 6, geometric mean (CV %)
[7] = po, 20 mg, single oral 20 mg fasted, powder-in-bottle, n = 6, geometric mean (CV %)
[8] = po, 40 mg, single oral 40 mg FED (high-fat breakfast), powder-in-bottle, n = 6, geometric mean (CV %)
[9] = po, 40 mg, single oral 40 mg fasted, powder-in-bottle, n = 6, geometric mean (CV %)
[10] = po, 80 mg, single oral 80 mg fasted, powder-in-bottle, n = 6, geometric mean (CV %)
[11] = po, 120 mg, single oral 120 mg fasted, powder-in-bottle, n = 5, geometric mean (CV %)
[12] = single oral 20 mg fasted, powder-in-bottle, n = 6, geometric mean (CV %)

## CS(=O)(=O)c1ccc(-c2cnc(N)c(-c3ccc(C(F)(F)F)nc3)c2)cc1 [MMV390048]
[1]; oral, all cohorts, powder-in-bottle, read-out: elimination half-life
  half-life: > 149 h
[1]; oral, fasted cohorts, read-out: median time of maximum concentration (Tmax)
  Tmax: 1 to 2.5 h
[1]; [6]
  AUC(0-inf): 2140 ng·h/mL
  Cmax: 15.6 ng/mL
  Vd/F: 520 L
[1]; po, 5 mg, single oral 5 mg fasted, powder-in-bottle, n = 6, geometric mean (CV %), read-out: t1/2 (converted)
  half-life: 154 h
[1]; po, 5 mg, single oral 5 mg fasted, powder-in-bottle, n = 6, median (range), read-out: Tmax
  Tmax: 1 h
[1]; [7]
  AUC(0-inf): 33300 ng·h/mL
  Cmax: 136 ng/mL
  Vd/F: 266 L
[1]; po, 20 mg, single oral 20 mg fasted, powder-in-bottle, n = 6, geometric mean (CV %), read-out: t1/2 (converted)
  half-life: 306 h
[1]; po, 20 mg, single oral 20 mg fasted, powder-in-bottle, n = 6, median (range), read-out: Tmax
  Tmax: 2 h
[1]; [8]
  AUC(0-inf): 34500 ng·h/mL
  Cmax: 155 ng/mL
  Vd/F: 373 L
[1]; po, 40 mg, single oral 40 mg FED (high-fat breakfast), powder-in-bottle, n = 6, geometric mean (CV %), read-out: t1/2 (converted)
  half-life: 223 h
[1]; po, 40 mg, single oral 40 mg FED (high-fat breakfast), powder-in-bottle, n = 6, median (range), read-out: Tmax
  Tmax: 4 h
[1]; [9]
  AUC(0-inf): 17600 ng·h/mL
  Cmax: 74.4 ng/mL
  Vd/F: 624 L
[1]; po, 40 mg, single oral 40 mg fasted, powder-in-bottle, n = 6, geometric mean (CV %), read-out: t1/2 (converted)
  half-life: 190 h
[1]; po, 40 mg, single oral 40 mg fasted, powder-in-bottle, n = 6, median (range), read-out: Tmax
  Tmax: 2.5 h
[1]; [10]
  AUC(0-inf): 62000 ng·h/mL
  Cmax: 238 ng/mL
  Vd/F: 444 L
[1]; po, 80 mg, single oral 80 mg fasted, powder-in-bottle, n = 6, geometric mean (CV %), read-out: t1/2 (converted)
  half-life: 239 h
[1]; po, 80 mg, single oral 80 mg fasted, powder-in-bottle, n = 6, median (range), read-out: Tmax
  Tmax: 1 h
[1]; [11]
  AUC(0-inf): 82600 ng·h/mL
  Cmax: 518 ng/mL
  Vd/F: 432 L
[1]; po, 120 mg, single oral 120 mg fasted, powder-in-bottle, n = 5, geometric mean (CV %), read-out: t1/2 (converted)
  half-life: 206 h
[1]; po, 120 mg, single oral 120 mg fasted, powder-in-bottle, n = 5, median (range), read-out: Tmax
  Tmax: 1 h
[1]; single oral 5 mg fasted, powder-in-bottle, n = 6, geometric mean (CV %)
  CL/F: 2.3 (76.3) liters h^−1
[1]; [12]
  CL/F: 0.6 (17.1) liters h^−1
[1]; single oral 40 mg FED (high-fat breakfast), powder-in-bottle, n = 6, geometric mean (CV %)
  CL/F: 1.2 (67.5) liters h^−1
[1]; single oral 40 mg fasted, powder-in-bottle, n = 6, geometric mean (CV %)
  CL/F: 2.3 (86.8) liters h^−1
[1]; single oral 80 mg fasted, powder-in-bottle, n = 6, geometric mean (CV %)
  CL/F: 1.3 (46.0) liters h^−1
[1]; single oral 120 mg fasted, powder-in-bottle, n = 5, geometric mean (CV %)
  CL/F: 1.5 (165.8) liters h^−1
[2]
  testicular toxicity: testicular toxicity was observed
[3]; the 4 subjects who recrudesced 2 days after treatment
  AUC(0-t): 6000 to 9000 ng·h/mL
[3]; the two subjects who recrudesced 7 days after treatment
  AUC(0-t): ~12000 ng·h/mL
[3]; [12]
  AUC(0-inf): 15900 ng·h/mL
  Cmax: 106 ng/mL
[3]; single oral 20 mg fasted, powder-in-bottle, n = 6, median (range)
  Tmax: 2 h
[4]
  elimination half-life in humans predicted from preclinical studies: 90 h
[5]; room temperature, 4°C and -20°C
  stock solution in dimethylsulfoxide stable for: 24 h
[5]; stored at -80°C
  stock solution in dimethylsulfoxide stable for: 1610 h
